Entries after “also recorded” stand apart in the source; their conditions may differ.
Tests used:
live strain of bacteria = assay: murine myositis model, infection vs sterile inflammation, PET SUV / Patlak / CFU correlation (strain not stated at the result); type: in vivo, mice
Excerpt: (§1) Referring now to FIGS. 2A-2D, a murine myositis model of musculoskeletal infection was used to determine whether [^18F]FMtl could differentiate sterile inflammation from infection in vivo by inoculating the right triceps brachii with a live strain of bacteria and the left triceps brachii with 10× heat-killed bacteria to generate an inflammatory response.
To quantify PET signal, volumes of interest (VOIs) were generated in the upper limbs of mice using CT for anatomical localization. […] Biodistribution studies were performed in successive cohorts of mice over 3 hours to determine dosimetry of [^18F]FMtl. […] Static PET SUV were correlated with bacterial colony-forming units (CFU) from excised tissue to determine sensitivity of [^18F]FMtl (see FIG. 2C), indicating [^18F]FMtl can reliably detect as little as 5 log10 (CFU/mL) of bacteria in vivo by SUV. It was also investigated whether parametric mapping could increase bacterial sensitivity of [^18F]FMtl in vivo, as Patlak slope (K,) is a quantitative measure of rate of uptake in tissue, rather than SUV, which is semi-quantitative and cannot delineate signal from blood pool contamination and tissue. Parametric imaging improved the bacterial sensitivity of [^18F]FMtl by roughly 20-fold (log10 CFU=1.3; 1.7×10^6 improved to […]) (see FIG. 2D).

S. aureus [1] = assay: serial [^18F]FMtl PET during vancomycin treatment of S. aureus myositis; type: in vivo, mice; conditions: FIG. 7A
Experimental: A growing incidence of antimicrobial resistance in many bacterial pathogens is a serious concern, as treatment failure is a major threat to global health. Inappropriate antibiotic use is also the primary driver of antibiotic resistance, which places undue risk onto patients for adverse events such as allergic reactions and C. difficile infection. […] Mice were inoculated with S. areus in the right triceps brachii and imaged 8 hours post-infection with [^18F]FMtl, prior to initiation of vancomycin treatment (100 mg/kg every 8 hours, IP) and subsequently imaged at 24 and 72 hours post-treatment. […] The accumulation of [^18F]FMtl was further investigated in a panel of bacterial isolates from infected combat wounds of military service members (see FIG. 7B).

S. aureus [2] = assay: in vitro accumulation of radiotracer in S. aureus cultures (gamma counts); type: cell-based; conditions: for accumulation in S. aureus cultures, tracer comparison: FIG. 1D, FMtl vs FDS P<0.001
Experimental: (§2) Accumulation of [^18F]FMtl was also evaluated in a broad panel of bacterial strains.

S. aureus [3] = assay: mixed infection (polymicrobial) myositis model, PET/CT, S. aureus-infected left triceps brachii; type: in vivo, mice; conditions: for postmortem gamma counting of tissues: S. aureus-infected muscle
Excerpt: (§3) Referring now to FIGS. 3A-3B, the sensitivity of [^18F]FMtl compared to [^18F]FDS was also investigated in a mixed infection (polymicrobial) model. [^18F]FDS has shown remarkable specificity for Enterobacteriaceae in vivo, but has limited to no sensitivity toward gram-positive and other gram-negative organisms. Mice were inoculated with live E. coli (8.4×10^6 CFU) and S. aureus (8.8×10^6 CFU) in the right and left triceps brachii, respectively.

E. coli [4] = assay: mixed infection (polymicrobial) myositis model, PET/CT, E. coli-infected right triceps brachii; type: in vivo, mice; conditions: for postmortem gamma counting of tissues: E. coli-infected muscle; for E. coli SUV, [^18F]FMtl versus [^18F]FDS: P=0.11
Excerpt: as §3

S. aureus [5] = assay: competitive uptake assay of [^18F]FMtl in the presence of unlabeled D-mannitol; type: cell-based; conditions: co-incubation in S. aureus cultures, FIG. 1C
Experimental: FIG. 1C is a graph showing a competitive uptake assay of [^18F]FMtl in the presence of unlabeled D-mannitol in S. aureus;
as §2

E. coli [6] = assay: in vitro accumulation of radiotracer in E. coli cultures (gamma counts); type: cell-based
Experimental: as §2

[7] = test system: broad panel of bacterial strains; assay: uptake in a broad panel of bacterial strains (pathogens of clinical interest); type: cell-based; conditions: 60 minutes of incubation, FIG. 1B
Experimental: FIG. 1B is a graph showing uptake of [^18F]FMtl in pathogens of clinical interest, determined at 60 minutes of incubation;
as §2

S. aureus [8] = assay: murine myositis model, live vs 10× heat-killed bacteria, PET imaging (S. aureus); type: in vivo, mice; conditions: gram-positive strain; infected vs inflamed triceps brachii, FIG. 2A
Excerpt: as §1

E. coli [9] = assay: murine myositis model, live vs 10× heat-killed bacteria, PET imaging (E. coli); type: in vivo, mice; conditions: gram-negative strain; infected vs inflamed triceps brachii, FIG. 2A
Excerpt: as §1

A. baumannii = assay: laceration wound model infected with A. baumannii, [^18F]FMtl PET; type: in vivo; conditions: A. baumannii and several other ESKAPE pathogens
Excerpt: In an exemplary embodiment, [^18F]FMtl was able to differentiate sterile inflammation and bacterial infection resulting from S. aureus and E. coli in vivo in a murine myositis model using PET imaging. Exemplary embodiments of the present disclosure were extended to a laceration wound model infected with A. baumannii, an important pathogen in the nosocomial and battlefield setting. […] [^18F]FMtl PET was also able to monitor therapeutic efficacy of vancomycin against S. aureus in vivo. The ease of production of [^18F]FMtl facilitates wide dissemination from any radiopharmacy.

## 2-[^18F]fluoro-2-deoxy-glucose [[^18F]FDG, reference compound]
Live strain of bacteria; FIG. 2B
  differences in SUV between sites of infection and inflammation: unable to demonstrate significant differences in SUV
Live strain of bacteria; infected vs inflamed triceps brachii
  ability to distinguish infection from inflammation (PET): unable to distinguish infection from inflammation

## CN[C@H](CC(C)C)C(=O)N[C@H]1C(=O)N[C@@H](CC(N)=O)C(=O)N[C@H]2C(=O)N[C@H]3C(=O)N[C@H](C(=O)N[C@H](C(=O)O)c4cc(O)cc(O)c4-c4cc3ccc4O)[C@H](O)c3ccc(c(Cl)c3)Oc3cc2cc(c3O[C@@H]2O[C@H](CO)[C@@H](O)[C@H](O)[C@H]2O[C@H]2C[C@](C)(N)[C@H](O)[C@H](C)O2)Oc2ccc(cc2Cl)[C@H]1O [vancomycin, reference compound]
S. aureus [1]; vancomycin 100 mg/kg every 8 hours, IP, imaged 8 hours post-infection, 24 and 72 hours post-treatment
  [^18F]FMtl PET signal during treatment: diminished over the course of treatment

## OC[C@@H](O)[C@@H](O)[C@H](O)[C@@H]([18F])CO [[^18F]FDS, 2-[^18F]fluoro-2-deoxy-sorbitol]
S. aureus [2]
  accumulation in S. aureus cultures, tracer comparison: not significantly different to negative control
S. aureus [3]
  postmortem gamma counting of tissues: only accumulated in E. coli-infected muscle
E. coli [4]
  postmortem gamma counting of tissues: only accumulated in E. coli-infected muscle
  E. coli SUV, [^18F]FMtl versus [^18F]FDS: no significant differences
E. coli [4]; P=0.007
  specificity, E. coli compared to S. aureus infection: high specificity for E. coli compared to S. aureus

## OC[C@@H](O)[C@@H](O)[C@H](O)[C@H](O)CO [D-mannitol]
S. aureus [5]
  concentration of D-mannitol that blocked [^18F]FMtl accumulation in bacteria: ≥ 10 µg/mL

## OC[C@@H](O)[C@@H](O)[C@H](O)[C@H]([18F])CO [[^18F]FMtl, [^18F]fluoromannitol]
S. aureus [2]
  accumulation in S. aureus cultures, tracer comparison: significantly higher
S. aureus [2]; P=0.64
  accumulation in S. aureus versus E. coli cultures: not significantly different
S. aureus [2]; heat-killed bacteria
  incorporation of tracer over time: not heat-killed bacteria
S. aureus [2]; live S. aureus cultures, FIG. 1A
  incorporation of tracer over time: readily incorporated
E. coli [6]; FIG. 1D
  accumulation in E. coli cultures, tracer comparison: accumulated
E. coli [6]; heat-killed bacteria
  incorporation of tracer over time: not heat-killed bacteria
E. coli [6]; live E. coli cultures
  incorporation of tracer over time: readily incorporated
[7]
  strains excepted from rapid and significant accumulation: P. aeruginosa and E. faecium
[7]; all strains tested except P. aeruginosa and E. faecium
  accumulation in bacterial strains: rapid and significant accumulation
S. aureus [8]
  accumulation at site of infection (PET): specifically accumulated in the site of infection
E. coli [9]
  accumulation at site of infection (PET): specifically accumulated in the site of infection
Live strain of bacteria; Patlak parametric mapping
  bacterial sensitivity with parametric imaging: 7.0×10^5 CFU
Live strain of bacteria; SUV
  bacterial sensitivity before parametric imaging: 1.7×10^6 CFU
Live strain of bacteria; dynamic imaging, intravenous injection
  time post-injection to significant differences in PET signal (infection detected and differentiated): 5 min
Live strain of bacteria; ex vivo, infected vs inflamed tissue
  gamma counting of excised triceps brachii after scans: increased PET signal in the infected tissue compared to inflamed
Live strain of bacteria; mouse, in vivo
  bacteria reliably detected in vivo using the clinical standard SUV: 10^5 CFU
  sensitivity between E. coli and S. aureus: did not diminish
Live strain of bacteria; static PET SUV correlated with CFU from excised tissue, FIG. 2C
  bacteria reliably detected in vivo by SUV (sensitivity): 5 log10 (CFU/mL)
Live strain of bacteria; summed frames 45-60 minutes post-injection, FIG. 2B
  increase of standardized uptake value (SUV) at infection compared to contralateral site of inflammation: 3.5 fold
S. aureus [3]; E. coli 8.4×10^6 CFU right, S. aureus 8.8×10^6 CFU left, P=0.19
  SUV / accumulation, E. coli versus S. aureus infection in the same animal: No significant differences in SUV; also recorded: indistinguishable accumulation
S. aureus [3]; P<0.001
  accumulation in S. aureus infection, compared to [^18F]FDS: significantly higher
S. aureus [3]
  postmortem gamma counting of tissues: uptake in both S. aureus and E. coli
E. coli [4]
  postmortem gamma counting of tissues: uptake in both S. aureus and E. coli
  E. coli SUV, [^18F]FMtl versus [^18F]FDS: no significant differences
S. aureus [1]; vancomycin treatment
  relation of PET signal to CFU burden during treatment: correlating closely with CFU burden
A. baumannii
  detection of infection by PET: rapidly and specifically detected
